In general, GI50 refers to the concentration that inhibits growth by half.

The values below come from patent publication US6569638B1, “Method for screening compounds for the treatment of neoplasia” (Cell Pathways, Inc, priority 2000, dated 2003).

The test system of test [1] is polyp and normal colonic tissues. Kind of test: Apoptosis rates in paired biopsies of APC patients. In kind it is in vivo, human.
Test [2] deals with PKG in SW480 colon cancer cells. Kind of test: PKG assay of drug-treated cell lysates (GST-cGB-PDE5 solid phase substrate). It is filed as cell-based, human. The settings on record: 48 hrs, exisulind 200, 400, 600 μM, E4021 0.1, 1, 10 μM, with and without added cGMP. The protocol:
To test the effect of cGMP-specific PDE inhibition on neoplasia containing the APC mutation, SW480 colon cancer cells were employed. SW 480 is known to contain the APC mutation. About 5 million SW480 cells in RPMI 5% serum are added to each of 8 dishes:
2-10 cm dishes—30 μL DMSO vehicle control (without drug),
3-10 cm dishes—200 μM, 400 μM, 600 μM exisulind in DMSO, and
The dishes are incubated for 48 hrs at 37° C. in 5% CO2 incubator.
The liquid media are aspirated from the dishes (the cells will attach themselves to the dishes). The attached cells are washed in each dish with cold PBS, and 200 μL cell lysis buffer (i.e., 50 mM Tris-HCl, 1% NP-40, 150 mM NaCl, 1 mM EDTA, 1 mM Na3VO4, 1 mM NaF, 500 μM IBMX with proteinase inhibitors) is added to each dish. Immediately after the cell lysis buffer is added, the lysed cells are collected by scraping the cells off each dish. The cell lysate from each dish is transferred to a microfuge tube, and the microfuge tubes are incubated at 4° C. for 15 minutes while gently agitating the microfuge tubes to allow the cells to lyse completely. […]
For each control or drug cell lysate sample to be evaluated, the reaction is started by adding phosphorylation buffer containing 10 μCi ^32P-γ-ATP solution (200 μM ATP, 4.5 mM MgCl; 5 mM KH2PO4; 5 mM K2HPO4;) to each mixture. […]

A further test relates to PC-3. The experiment in a line: Neutral red growth inhibition. It is filed as cell-based, human. The settings on record: PC-3, Prostate, free base. The protocol: (§1) Compound B's activity is not confined to activity against colon cancer cell lines or animal models of colon cancer. It has a broad range of anti-neoplastic effects in various neoplastic cell lines. Various types of human cancer cell lines were propagated under sterile conditions in RPMI 1640 medium with 10% fetal bovine serum, 2 mM L-glutamine and sodium bicarbonate. To determine growth inhibitory effects of Compound B, cells were seeded in 96-well plates at a density of 1000 cells per well. Twenty-four hours after plating, the cells were dosed with various concentrations of the free base of Compound B solubilized in DMSO (final concentration 0.1%). The effect of the drug on tumor cell growth was determined using the neutral red cytotoxicity assay following five days of continuous treatment. Neutral red is a dye that is selectively taken up by viable cells by an ATP-dependent transport mechanism.

In a further test the test system is OVCAR. Kind of test: Neutral red growth inhibition. The settings on record: Ovary, HCl salt. In kind it is cell-based, human. The protocol:
as §1

Another test concerns Colo 205. The experiment in a line: Neutral red growth inhibition. In kind it is cell-based, human. The settings on record: Colo 205, Colon, free base. The protocol:
as §1

The subject of another test is MDA-MB-231. Kind of test: Neutral red growth inhibition. In kind it is cell-based, human. The settings on record: MDA-MB-231, Breast, free base. The protocol:
as §1

The next test deals with NCI-H322M. The experiment in a line: Neutral red growth inhibition. The settings on record: Lung, free base. In kind it is cell-based, human. The protocol: as §1
A further test concerns NCI-H82. The experiment in a line: Neutral red growth inhibition. In kind it is cell-based, human. The conditions noted are these: NCI-H82, Lung, free base. The protocol:
as §1

In the next test the test system is SW-620. The experiment in a line: Neutral red growth inhibition. It is filed as cell-based, human. The conditions noted are these: SW-620, Colon, free base. The protocol:
as §1

The next test relates to NCI-H23. The experiment in a line: Neutral red growth inhibition. In kind it is cell-based, human. The conditions noted are these: NCI-H23, Lung, free base. The protocol: as §1
Another test deals with HCT-15. The experiment in a line: Neutral red growth inhibition. In kind it is cell-based, human. The conditions noted are these: HCT-15, Colon, free base. The protocol: as §1
The test system of another test is NCI-H460. Kind of test: Neutral red growth inhibition. It is filed as cell-based, human. The conditions noted are these: NCI-H460, Lung, free base. The protocol: as §1
The next test deals with UISO-BCA-1. The experiment in a line: Neutral red growth inhibition. In kind it is cell-based, human. The conditions noted are these: UISO-BCA-1, Breast, free base. The protocol:
as §1

The next test has as its system MDA-MB-435. Kind of test: Neutral red growth inhibition. In kind it is cell-based, human. The conditions noted are these: MDA-MB-435, Breast, free base. The protocol:
as §1

A further test deals with HT-29. Kind of test: Neutral red growth inhibition. It is filed as cell-based, human. The settings on record: HT-29, Colon, free base. The protocol: as §1
In a further test the test system is DU145. The experiment in a line: Neutral red growth inhibition. In kind it is cell-based, human. The settings on record: DU145, Prostate, free base. The protocol: as §1

`CC1=C(CC(=O)O)c2cc(F)ccc2/C1=C\c1ccc(S(C)(=O)=O)cc1` [exisulind, 5-fluoro-2-methyl-1-(p-methylsulfonylbenzylidene)-3-indenylacetic acid]: in [1], the “apoptosis rates in polyp versus normal colonic tissues” value is reported as “increased apoptosis rates in polyp, but not normal colonic tissues”. For the same compound, the “PKG activity relative to control” value in test [2] is “causes PKG activity to increase in a dose-dependent manner”.
For the compound `CC1=C(CC(=O)NCc2ccccc2)c2cc(F)ccc2/C1=C\c1ccncc1.Cl` [Compound B, (Z)-5-fluoro-2-methyl-(4-pyridylidene)-3-(N-benzyl)indenylacetamide hydrochloride], the GI50 in the test on PC-3 worked out at 1700 nM; with OVCAR it was 1200 nM; in the test with Colo 205 it was 1600 nM; in the test on MDA-MB-231, 1800 nM; in the test with NCI-H322M, 2100 nM; in the test on NCI-H82 it was 1700 nM. Also, the GI50 is 1700 nM in the test with SW-620; 1700 nM in the test on NCI-H23; 1700 nM in the test on HCT-15; 1900 nM with NCI-H460; 1500 nM in the test with UISO-BCA-1; 1600 nM with MDA-MB-435. In addition, the GI50 is 2100 nM in the test on HT-29 and 1600 nM in the test with DU145. The GI90 came to 82500 nM with PC-3; 2400 nM in the test on Colo 205; 77600 nM in the test on MDA-MB-231; 13200 nM with NCI-H322M; 5800 nM with NCI-H82; 2500 nM with SW-620. The GI90 worked out at 2500 nM in the test on NCI-H23; 3000 nM in the test on HCT-15; 30000 nM with NCI-H460; 4700 nM with UISO-BCA-1; 2300 nM in the test on MDA-MB-435; 8000 nM in the test on HT-29. Besides, the GI90 in the test on DU145 came out at 2800 nM.
